Read-outs that look alike come from different tables or passages of the source.
Experiments:
[1] = tested on: platelet aggregation induced by U 46 619 (human PRP); assay: Thrombocyte function in vitro: aggregation by U 46 619 (human PRP); assay type: cell-based
Experimental: (§1) 1. Thrombocyte Function In Vitro (Human PRP)
(§2) BM 13 177 (in the text, BM) and Iloprost are tested in their action on thrombocyte aggregation and thrombocyte shape change against stimulants U 46 619 (9,11-dideoxy,9alpha-11alpha-methanoepoxy PGF2alpha, stable TXA2 agonist) and ADP and the IC50 values are determined. Then in several independent tests the action of a combination of the two substances on the aggregation (U 46 619 and ADP) in various concentrations is tested; especially the combination of low dosages and of dosages of the two substances in the range of the IC50 values is tested.
(§3) Platelet aggregation and shape change are measured as light-optical phenomena in stimulated PRP (platelet rich plasma) samples. In this case, the shape change is detected as the density increase of the sample by transition of the discoid rest shape of the platelet into a spherozytic shape with formation of pseudopodlike membrane formations and represented on a recorder. The aggregation is photometrically detected as density […] by clumping and "precipitation" of platelet aggregates and represented on a recorder.

[2] = tested on: platelet shape change induced by U 46 619 (human PRP); assay: Thrombocyte function in vitro: shape change by U 46 619 (human PRP); assay type: cell-based; settings: for IC50: human PRP, stimulant U 46 619
Experimental: as §1, §2, §3
Example 2: Shape change by 50 ng/ml U 46 619

[3] = tested on: 2nd wave of aggregation induced by ADP (human PRP); assay: Thrombocyte function in vitro: 2nd wave of aggregation by ADP (human PRP); assay type: cell-based; settings: for % Inhibition (2nd wave of aggregation): 0.5×10^-6 M ADP; for IC50: human PRP, stimulant ADP
Experimental: as §1, §2, §3
Example 3: 2nd wave of aggregation by 0.5×10^-6 M ADP

[4] = tested on: intravascular thrombocyte aggregation (collagen-induced thrombocytopenia); assay: Intravascular thrombocyte aggregation on anesthetized rats (collagen-induced thrombocytopenia); assay type: in vivo
Description: 2. Intravascular Thrombocyte Aggregation on Anesthetized Rats
The influence of the intravascular thrombocyte aggregation is examined on urethane anesthetized rats.
Collagen (100 micrograms/kg i.v. bolus) causes transitory thrombocytopenias (a transient loss of blood platelet concentration), measured by continuous taking of blood from the A. carotis (50 microliter/min) and thrombocyte counting in the Technicon Autocounter. The change of the collagen-induced thrombocytopenia (% of loss) in comparison with the initial value (=2nd collagen injection) serves as a measurement for the inhibition of the intravascular platelet aggregation.

[5] = tested on: mesenteric arteriole thrombosis (topical ADP); assay: Mesenteric arteriole thrombosis on anesthetized guinea pigs; assay type: in vivo
Experimental: 3. Mesenteric Arteriole Thrombosis on Anesthetized Guinea Pigs
A mesenteric loop for vital microscopy is prepared on anesthetized guinea pigs. After electrical lesion of an arteriole, under controlled conditions and after substance application, ADP is applied topically until finding of a thrombogenic dose (occlusion by platelet thrombus).
Parameters: increasing of the thrombogenic ADP concentration vs. initial value; i.v. infusion of Iloprost, i.v. injection of BM 13 177.

jugular vein thrombosis = assay: Jugular vein thrombosis on anesthetized rats; assay type: in vivo
Experimental: 4. Jugular Vein Thrombosis on Anesthetized Rats
By stressing of the jugular vein of rats anesthetized with urethane with a metal punch cooled to -15° C. (200 g, 2 min) the vessel is predamaged. The thrombus grown within 3 hours on this site is quantified (Hb content wet weight) by determinations of its Hb content (difference damaged-undamaged vessel segment).
The infusion of the test substances begins 15 min before damaging the vein and is continued until the end of the test.

[6] = Blood pressure of spontaneously hypertonic (SH) rats; settings: Iloprost 0.3 microgram/kg/min (threshold dose), awake SH rats

With `O=C(O)COc1ccc(CCNS(=O)(=O)c2ccccc2)cc1` [BM 13 177, 4-[2-(benzenesulfonamido)-ethyl]-phenoxyacetic acid] as the compound, how does the IC50 ([1]; BM 13 177, human PRP, stimulant U 46 619, read-out: IC50 for the aggregation) read?
Its IC50 is 1650 to 6600 nM.

What about the inhibition at 0.66 µM ([1]; Homo sapiens, 0.66 microM BM 13 177, 100 ng/ml U 46 619) of the same compound?
The inhibition at 0.66 µM was 16%.

And the inhibition at 0.66 µM ([2]; Homo sapiens, Platelet, 0.66 microM BM 13 177, 50 ng/ml U 46 619)?
The inhibition at 0.66 µM was 28%.

What about the IC50 ([2]; Platelet, BM 13 177, read-out: IC50 for the shape change) of the same compound?
The IC50 was 1650 to 3300 nM.

And the “% Inhibition (2nd wave of aggregation)” value ([3]; 0.165 microM BM 13 177)?
Its value is “no inhibition”.

What about the IC50 ([3]; BM 13 177) of the same compound?
The IC50 was 330 to 660 nM.

And the “inhibition of collagen-induced thrombocytopenia” value ([4]; BM 13 177 0.5 mg/kg/min (lowest dosage), MW±SE)?
The value was “about 27±6%”.

And the “platelet inhibition in vivo” value ([4]; BM 13 177 2 mg/kg i.v. infusion)?
The value was 27%.

And the “inhibition of collagen-induced thrombocytopenia on raising the dosage (in words)” value ([4]; BM 13 177 1.0-2.0 mg/kg/min)?
The value was “cannot be increased by raising the dosage”.

And the “increase of thrombogenic ADP concentration (factor)” value ([5]; BM 13 177 25 mg/kg i.v., significant)?
Its value is ~4.

And the “antithrombotic effect, Hb content of thrombi (in words)” value (jugular vein thrombosis; BM 13 177 20 mg/kg i.v. bolus + 50 micrograms/kg/min i.v., monotherapy)?
Its value is “ineffective”.

What about the “antithrombotic effect (in words)” value (jugular vein thrombosis; BM 13 177 as monotherapy) of the same compound?
Its value is “not antithrombotically effective”.

Which inhibition at 0.0001 µg/mL ([1]; Homo sapiens, 0.1 ng/ml Iloprost, 100 ng/ml U 46 619) does the source give for `CC#CCC(C)[C@H](O)/C=C/[C@@H]1[C@H]2C/C(=C/CCCC(=O)O)C[C@H]2C[C@H]1O` (stereo partly shown) [Iloprost] here?
The inhibition at 0.0001 µg/mL was 2%.

And the IC50 ([1]; Iloprost, human PRP, stimulant U 46 619, read-out: IC50 for the aggregation inhibition)?
Its IC50 is 1.3 to 2.6 nM.

What about the “% Inhibition (shape change)” value ([2]; 0.1 ng/ml Iloprost, 50 ng/ml U 46 619) of the same compound?
Its value is “no inhibition”.

What about the IC50 ([2]; Platelet, Iloprost, read-out: IC50 for the shape change inhibition) of the same compound?
The IC50 was 0.52 to 1.3 nM.

And the “% Inhibition (2nd wave of aggregation)” value ([3]; 0.1 ng/ml Iloprost)?
The value was “no inhibition”.

And the IC50 ([3]; Iloprost)?
The IC50 was 0.26 to 0.65 nM.

What about the “inhibition of collagen-induced thrombocytopenia (in words)” value ([4]; Iloprost 0.1-0.33-1.0 micrograms/kg/min) of the same compound?
Its value is “inhibits the collagen-induced thrombocytopenia, depending on the dose”.

What about the “increase of thrombogenic ADP concentration (factor)” value ([5]; Iloprost 0.1 microgram/kg/min i.v. (threshold dose)) of the same compound?
Its value is 2.8.

What about the “antithrombotic effect, Hb content of thrombi (in words)” value (jugular vein thrombosis; Iloprost 30 ng/kg/min i.v., individual dose) of the same compound?
Its value is “not significantly effective”.

What about the “reduction of diastolic blood pressure” value [6] of the same compound?
Its value is 20%.

Source: patent US5523321A, “Prostacyclins, their analogs or prostaglandins and thromboxane antagonists for treatment of thrombotic and thromboembolic syndromes” (Schering Aktiengeselleschaft, priority 1985, dated 1996)
